Experimental data as given in patent US20130184302A1, “METHODS FOR TREATING IRRITABLE BOWEL SYNDROME (IBS) AND INFECTIONS” (priority 2011, published 2013).

How the values were obtained:
[1] = system: patients with non-constipation IBS (non-C IBS); experiment: Adequate relief of IBS symptoms and IBS symptom of bloating (weekly SGA, daily measures), rifaximin 550 mg TID 14 days; format: in vivo, human
Source text: A measure of efficacy was based on subjects' answers to the Weekly Subject Global Assessment (SGA) questions over the 4 week study duration in relation to their IBS symptoms. […] The SGA question was asked weekly as follows: “In the past 7 days, have you had adequate relief of your IBS symptom of bloating?” (Yes/No).
The primary efficacy endpoint of the study was the proportion of subjects who achieved adequate relief of IBS symptoms for at least 2 weeks during the first 4 weeks of the 10-week follow-up phase.
Two measures of efficacy were assessed.
Subjects were questioned on the relief of overall IBS symptoms and bloating. […] The analyses defined success as a “yes” response to questions regarding adequate relief.
All subpopulations in the study responded to therapy. Baseline severity was determined during screening for Abdominal Pain/Discomfort and Bloating, and the number, type (normal, hard, loose) and urgency of bowel movements. Duration of effect was assessed in a ten week follow-up period.

[2] = system: patients with non-constipation IBS (non-C IBS); experiment: Stool frequency, rifaximin 550 mg TID study; format: in vivo, human
[3] = system: patients with cirrhosis and overt HE episodes; experiment: Rates of commonly-occurring infections and antibiotic use in cirrhotic patients with HE on long-term rifaximin; format: in vivo
Source text: Cirrhosis patients can have an increased risk of infections and subsequent hospitalizations, leading to increased mortality. […] A description of the OLM and RCT can be found in WO 2011/005388, “METHODS OF TREATING HEPATIC ENCEPHALOPATHY,” which is incorporated herein by reference in its entirety. In the analysis below, the effect of long term RFX treatment on infection rates and antibiotic use was examined.
Patients with cirrhosis and ≧2 overt HE episodes within 12 months were enrolled in the RCT (RFX=140; placebo [PBO]=159); 170 new patients, in addition to 70 RFX and 82 PBO patients who rolled over from the RCT were enrolled in OLM. The “All RFX group” (n=392) consisted of RFX-treated patients in both studies. Infection rates per person exposure years (PEY) were compared across RCT and All RFX groups, and antibiotic use over time was examined.
In the 6 month RCT, RFX exposure was 50 PEY vs 46 PEY in the PBO group. Long term RFX exposure was for median =427 (2-1427) days, or 510 PEY.

[4] = system: C. difficile infection (CDI); experiment: CDI trial: enteric symptoms at TOC; format: in vivo, human
Source text: Table 41 sets forth a summary of the enteric symptoms at TOC.

[5] = Age Group: <65 (N = 281), 550 mg TID
[6] = Gender: Female (N = 226), 550 mg TID
[7] = Gender: Male (N = 85), 550 mg TID
[8] = IBS Subtype: Alternating-predominant, 550 mg TID
[9] = IBS Subtype: Diarrhoea-predominant, 550 mg TID
[10] = Population: ITT (N = 315), 550 mg TID
[11] = Population: PP (N = 311), 550 mg TID
[12] = Population: PP (N = 311), weekly SGA, 550 mg TID
[13] = Race: Non-White (N = 31), 550 mg TID
[14] = Race: White (N = 280), 550 mg TID
[15] = oral rifaximin 550 mg TID 14 days vs subjects not taking rifaximin
[16] = weekly SGA, at least 2 of Weeks 3 through 6, 550 mg TID (N = 315)
[17] = weekly SGA, 550 mg TID (N = 315)
[18] = Rifaximin N = 108, Vancomycin N = 111

Question: What does the source list for `CO[C@H]1/C=C/O[C@@]2(C)Oc3c(C)c(O)c4c(O)c(c5c(nc6cc(C)ccn65)c4c3C2=O)NC(=O)/C(C)=C\C=C\[C@H](C)[C@H](O)[C@@H](C)[C@@H](O)[C@@H](C)[C@H](OC(C)=O)[C@@H]1C` [Rifaximin, (2S,16Z,18E,20S,21S,22R, 23R,24R,25S,26S,27S,28E)-5,6,21,23,25 Pentahydroxy-27-methoxy-2,4,11,16,20,22,24,26-octamethyl-2,7-(epoxypentadeca-(1,11,13)trienimino) benzofuro (4,5-e) pyrido(1,2,-a) benzimidazole-1,15(2H)-dione,25-acetate]?
Answer: Adequate Relief of IBS symptom of Bloating: Failure [1, 5]: 171 (60.9%); Adequate Relief of IBS symptom of Bloating: Success [1, 5]: 110 (39.1%); Adequate Relief of IBS symptoms: Failure [1, 5]: 171 (60.9%); Adequate Relief of IBS symptoms: Success [1, 5]: 110 (39.1%); Adequate Relief of IBS symptom of Bloating: Failure ([1]; Age Group: > = 65, 550 mg TID): 16 (53.3%); Adequate Relief of IBS symptom of Bloating: Success ([1]; Age Group: > = 65, 550 mg TID): 14 (46.7%); Adequate Relief of IBS symptoms: Failure ([1]; Age Group: > = 65, 550 mg TID): 16 (53.3%); Adequate Relief of IBS symptoms: Success ([1]; Age Group: > = 65, 550 mg TID): 14 (46.7%); Adequate Relief of IBS symptom of Bloating: Failure [1, 6]: 128 (56.6%); Adequate Relief of IBS symptom of Bloating: Success [1, 6]: 98 (43.4%); Adequate Relief of IBS symptoms: Failure [1, 6]: 130 (57.5%); Adequate Relief of IBS symptoms: Success [1, 6]: 96 (42.5%); Adequate Relief of IBS symptom of Bloating: Failure [1, 7]: 59 (69.4%); Adequate Relief of IBS symptom of Bloating: Success [1, 7]: 26 (30.6%); Adequate Relief of IBS symptoms: Failure [1, 7]: 57 (67.1%); Adequate Relief of IBS symptoms: Success [1, 7]: 28 (32.9%); Adequate Relief of IBS symptom of Bloating: Failure [1, 8]: 19 (55.9%); Adequate Relief of IBS symptom of Bloating: Success [1, 8]: 15 (44.1%); Adequate Relief of IBS symptoms: Failure [1, 8]: 21 (61.8%); Adequate Relief of IBS symptoms: Success [1, 8]: 13 (38.2%); Adequate Relief of IBS symptom of Bloating: Failure [1, 9]: 168 (60.6%); Adequate Relief of IBS symptom of Bloating: Success [1, 9]: 109 (39.4%); Adequate Relief of IBS symptoms: Failure [1, 9]: 166 (59.9%); Adequate Relief of IBS symptoms: Success [1, 9]: 111 (40.1%); Adequate Relief of IBS symptom of Bloating Based on Daily Measures: Failure [1, 10]: 182 (57.8%); Adequate Relief of IBS symptom of Bloating Based on Daily Measures: Success [1, 10]: 133 (42.2%); Adequate Relief of IBS symptoms Based on Daily Measures: Failure [1, 10]: 200 (63.5%); Adequate Relief of IBS symptoms Based on Daily Measures: Success [1, 10]: 115 (36.5%); Adequate Relief of IBS symptom of Bloating Based on Daily Measures: Failure [1, 11]: 180 (57.9%); Adequate Relief of IBS symptom of Bloating Based on Daily Measures: Success [1, 11]: 131 (42.1%); Adequate Relief of IBS symptoms Based on Daily Measures: Failure [1, 11]: 196 (63.0%); Adequate Relief of IBS symptoms Based on Daily Measures: Success [1, 11]: 115 (37.0%); Adequate Relief of IBS symptom of Bloating: Failure [1, 12]: 187 (60.1%); Adequate Relief of IBS symptom of Bloating: Success [1, 12]: 124 (39.9%); Adequate Relief of IBS symptoms: Failure [1, 12]: 187 (60.1%); Adequate Relief of IBS symptoms: Success [1, 12]: 124 (39.9%); Adequate Relief of IBS symptom of Bloating: Failure [1, 13]: 17 (54.8%); Adequate Relief of IBS symptom of Bloating: Success [1, 13]: 14 (45.2%); Adequate Relief of IBS symptoms: Failure [1, 13]: 16 (51.6%); Adequate Relief of IBS symptoms: Success [1, 13]: 15 (48.4%); Adequate Relief of IBS symptom of Bloating: Failure [1, 14]: 170 (60.7%); Adequate Relief of IBS symptom of Bloating: Success [1, 14]: 110 (39.3%); Adequate Relief of IBS symptoms: Failure [1, 14]: 171 (61.1%); Adequate Relief of IBS symptoms: Success [1, 14]: 109 (38.9%); Answers to weekly SGA question on adequate relief of IBS symptom of bloating [1, 15]: responded “Yes” more often; Answers to weekly SGA question on adequate relief of IBS symptoms [1, 15]: responded “Yes” more often; Adequate Relief of IBS symptom of Bloating: Success [1, 16]: 125 (39.7%); Adequate Relief of IBS symptoms: Success [1, 16]: 125 (39.7%); Adequate Relief of IBS symptom of Bloating: Failure [1, 17]: 190 (60.3%); Adequate Relief of IBS symptoms: Failure [1, 17]: 190 (60.3%); % with decrease in SF (stool frequency) ([2]; Week 1): 14.4%; % with decrease in SF (stool frequency) ([2]; Week 2): 20.6%; % with decrease in SF (stool frequency) ([2]; Week 3): 22.2%; % with decrease in SF (stool frequency) ([2]; Week 4): 21.6%; % with decrease in SF (stool frequency) ([2]; Week 5): 25.7%; % with decrease in SF (stool frequency) ([2]; Week 6): 22.9%; % with decrease in SF (stool frequency) ([2]; Week 7): 23.8%; % with decrease in SF (stool frequency) ([2]; Week 8): 24.4%; % with decrease in SF (stool frequency) ([2]; Week 9): 25.4%; % with decrease in SF (stool frequency) ([2]; Week 10): 26.7%; % with decrease in SF (stool frequency) ([2]; Week 11): 25.4%; % with decrease in SF (stool frequency) ([2]; Week 12): 27.0%; C. difficile infection, rate ([3]; All RFX Patients (n = 392), PEY = 510): (0.012) number of subjects/PEY; C. difficile infection, rate ([3]; RCT Patients, RFX (n = 140), PEY = 50): (0.040) number of subjects/PEY; Any infection, rate ([3]; human, in vivo): (0.072) number of subjects/PEY; Diarrhea: No, number of subjects [4, 18]: 86; Diarrhea: No, percent of subjects [4, 18]: (80%); Diarrhea: Yes, number of subjects [4, 18]: 22; Diarrhea: Yes, percent of subjects [4, 18]: (20%); Fever: No, number of subjects [4, 18]: 98; Fever: No, percent of subjects [4, 18]: (91%); Fever: Yes, number of subjects [4, 18]: 10; Fever: Yes, percent of subjects [4, 18]: (9%); Severe Abdominal Pain/Discomfort: No, number of subjects [4, 18]: 80; Severe Abdominal Pain/Discomfort: No, percent of subjects [4, 18]: (74%); Severe Abdominal Pain/Discomfort: Yes, number of subjects [4, 18]: 28; Severe Abdominal Pain/Discomfort: Yes, percent of subjects [4, 18]: (26%); Diarrhea: Treatment Difference ([4]; Rifaximin vs Vancomycin): −1.5%; Fever: Treatment Difference ([4]; Rifaximin vs Vancomycin): −7.5%; Severe Abdominal Pain/Discomfort: Treatment Difference ([4]; Rifaximin vs Vancomycin): −11.5%
